Our source for the melting point values is patent US6462037B1, “1,4-benzodiazepin-2-ones useful as HIV reverse transcriptase inhibitors” (Bristol-Myers Squibb Pharma Company, priority 1999, dated 2002).

For the molecule `CCCCN1CC(=O)Nc2ccc(Cl)cc2C1C(F)(F)F` (centres unmarked) [compound 100, 7-Chloro-4-butyl-1,5-dihydro-5-(trifluoromethyl)-1,4-benzodiazepin-2-one], the melting point (usually the temperature of the solid-liquid transition) lay within 89 to 92 °C.

As to `CC(C)=CCN1CC(=O)Nc2ccc(Cl)cc2C1C(F)(F)F` (centres unmarked) [compound 101, 7-Chloro-4-(3-methyl-2-butenyl)-1,5-dihydro-5-(trifluoromethyl)-1,4-benzodiazepin-2-one], the melting point is 120 to 125 °C.

`O=C1CN(Cc2ccccn2)C(C(F)(F)F)c2cc(Cl)ccc2N1` (centres unmarked) [compound 102, 7-Chloro-4-(2-pyridylmethyl)-1,5-dihydro-5-(trifluoromethyl)-1,4-benzodiazepin-2-one] yielded a melting point of 184 to 187 °C.

The molecule `Cc1ncc(CN2CC(=O)Nc3ccc(Cl)cc3C2C(F)(F)F)s1` (centres unmarked) [compound 103, 7-Chloro-4-(2-methyl-5-thiazolylmethyl)-1,5-dihydro-5-(trifluoromethyl)-1,4-benzodiazepin-2-one] gave a melting point of 196 to 220 °C.

Turning to `Cc1ccc(CN2CC(=O)Nc3ccc(Cl)cc3C2C(F)(F)F)nc1` (centres unmarked) [compound 104, 7-Chloro-4-(5-methyl-2-pyridylmethyl)-1,5-dihydro-5-(trifluoromethyl)-1,4-benzodiazepin-2-one], the melting point was 200 to 205 °C.

In turn, `O=C1CN(Cc2cccc(Cl)n2)C(C(F)(F)F)c2cc(Cl)ccc2N1` (centres unmarked) [compound 105, 7-Chloro-4-(6-chloro-2-pyridylmethyl)-1,5-dihydro-5-(trifluoromethyl)-1,4-benzodiazepin-2-one] returned a melting point of 184 to 186 °C.

`CCCN1CC(=O)Nc2ccc(Cl)cc2C1C(F)(F)F` (centres unmarked) [compound 106, 7-Chloro-4-propyl-1,5-dihydro-5-(trifluoromethyl)-1,4-benzodiazepin-2-one] gave a melting point of 123 to 124 °C.

Turning to `CCCCCCN1CC(=O)Nc2ccc(Cl)cc2C1C(F)(F)F` (centres unmarked) [compound 107, 7-Chloro-4-hexyl-1,5-dihydro-5-(trifluoromethyl)-1,4-benzodiazepin-2-one], the melting point was in the range of 87 to 88 °C.

`CCCCCN1CC(=O)Nc2ccc(Cl)cc2C1C(F)(F)F` (centres unmarked) [compound 108, 7-Chloro-4-pentyl-1,5-dihydro-5-(trifluoromethyl)-1,4-benzodiazepin-2-one] returned a melting point of 114 to 115 °C.

Consider `O=C1CN(CCCc2ccccc2)C(C(F)(F)F)c2cc(Cl)ccc2N1` (centres unmarked) [compound 109, 7-Chloro-4-(3-phenylpropyl)-1,5-dihydro-5-(trifluoromethyl)-1,4-benzodiazepin-2-one], for which the melting point lay in the range of 89 to 91 °C.

Consider `O=C1CN(Cc2ccccc2)C(C(F)(F)F)c2cc(Cl)ccc2N1` (centres unmarked) [compound 110, 7-Chloro-4-benzyl-1,5-dihydro-5-(trifluoromethyl)-1,4-benzodiazepin-2-one], for which the melting point lay in the range of 142 to 143 °C.

As to `CCCCCN1CC(=O)Nc2ccc(Cl)cc2C1C(F)(F)F` (centres unmarked) [compound 111, 7-Chloro-4-pentyl-1,5-dihydro-5-(trifluoromethyl)-1,4-benzodiazepin-2-one], the melting point was 94 to 96 °C.

`Cc1ccccc1CN1CC(=O)Nc2ccc(Cl)cc2C1C(F)(F)F` (centres unmarked) [compound 113, 7-Chloro-4-(2-methylbenzyl)-1,5-dihydro-5-(trifluoromethyl)-1,4-benzodiazepin-2-one]: the melting point was 197 to 198 °C.

In turn, `O=C1CN(Cc2ccccc2Br)C(C(F)(F)F)c2cc(Cl)ccc2N1` (centres unmarked) [compound 114, 7-Chloro-4-(2-bromobenzyl)-1,5-dihydro-5-(trifluoromethyl)-1,4-benzodiazepin-2-one] had a melting point of 161 to 162 °C.

In the case of `O=C1CN(Cc2c(F)cccc2Cl)C(C(F)(F)F)c2cc(Cl)ccc2N1` (centres unmarked) [compound 115, 7-Chloro-4-(2-chloro-6-fluorobenzyl)-1,5-dihydro-5-(trifluoromethyl)-1,4-benzodiazepin-2-one], the melting point lay within 171 to 172 °C.

`N#Cc1ccccc1CN1CC(=O)Nc2ccc(Cl)cc2C1C(F)(F)F` (centres unmarked) [compound 116, 7-Chloro-4-(2-cyanobenzyl)-1,5-dihydro-5-(trifluoromethyl)-1,4-benzodiazepin-2-one]: the melting point was in the range of 184 to 185 °C.

Take `O=C1CN(Cc2c(F)cccc2F)C(C(F)(F)F)c2cc(Cl)ccc2N1` (centres unmarked) [compound 117, 7-Chloro-4-(2,6-difluorobenzyl)-1,5-dihydro-5-(trifluoromethyl)-1,4-benzodiazepin-2-one]: the melting point lay within 173 to 174 °C.

With `COc1cccc(CN2CC(=O)Nc3ccc(Cl)cc3C2C(F)(F)F)c1` (centres unmarked) [compound 118, 7-Chloro-4-(3-methoxybenzyl)-1,5-dihydro-5-(trifluoromethyl)-1,4-benzodiazepin-2-one], the melting point lay within 171 to 172 °C.

In turn, `N#Cc1cccc(CN2CC(=O)Nc3ccc(Cl)cc3C2C(F)(F)F)c1` (centres unmarked) [compound 120, 7-Chloro-4-(3-cyanobenzyl)-1,5-dihydro-5-(trifluoromethyl)-1,4-benzodiazepin-2-one] gave a melting point of 241 to 242 °C.

With `COc1ccccc1CN1CC(=O)Nc2ccc(Cl)cc2C1C(F)(F)F` (centres unmarked) [compound 121, 7-Chloro-4-(2-methoxybenzyl)-1,5-dihydro-5-(trifluoromethyl)-1,4-benzodiazepin-2-one], the melting point fell in the range of 145 to 146 °C.

The molecule `O=C1CN(Cc2cccs2)C(C(F)(F)F)c2cc(Cl)ccc2N1` (centres unmarked) [compound 122, 7-Chloro-4-(2-thienylmethyl)-1,5-dihydro-5-(trifluoromethyl)-1,4-benzodiazepin-2-one] registered a melting point of 105 to 107 °C.

`O=C1CN(Cc2ccsc2)C(C(F)(F)F)c2cc(Cl)ccc2N1` (centres unmarked) [compound 123, 7-Chloro-4-(3-thienylmethyl)-1,5-dihydro-5-(trifluoromethyl)-1,4-benzodiazepin-2-one] registered a melting point of 148 to 150 °C.

The molecule `O=C1CN(Cc2ccco2)C(C(F)(F)F)c2cc(Cl)ccc2N1` (centres unmarked) [compound 124, 7-Chloro-4-(2-furanylmethyl)-1,5-dihydro-5-(trifluoromethyl)-1,4-benzodiazepin-2-one] yielded a melting point of 143 to 145 °C.

For the molecule `CCC(C)CCN1CC(=O)Nc2ccc(Cl)cc2C1C(F)(F)F` (centres unmarked) [compound 125, 7-Chloro-4-(3-methylpentyl)-1,5-dihydro-5-(trifluoromethyl)-1,4-benzodiazepin-2-one], the melting point was in the range of 66 to 67 °C.

With `COc1cccnc1CN1CC(=O)Nc2ccc(Cl)cc2C1C(F)(F)F` (centres unmarked) [compound 126, 7-Chloro-4-(3-methoxy-2-pyridylmethyl)-1,5-dihydro-5-(trifluoromethyl)-1,4-benzodiazepin-2-one], the melting point lay within 146 to 148 °C.

As to `O=C1CN(CC#CC2CC2)C(C(F)(F)F)c2cc(Cl)ccc2N1` (centres unmarked) [compound 127, 7-Chloro-4-(3-cyclopropyl-2-propynyl)-1,5-dihydro-5-(trifluoromethyl)-1,4-benzodiazepin-2-one], the melting point lay in the range of 121 to 123 °C.

The molecule `CCCCC1(C(F)(F)F)N=CC(=O)Nc2ccc(Cl)cc21` (centres unmarked) [compound 128, 7-Chloro-5-butyl-1,5-dihydro-5-(trifluoromethyl)-1,4-benzodiazepin-2-one] showed a melting point of 121 to 123 °C.

`CCCC#CCN1CC(=O)Nc2ccc(Cl)cc2C1C(F)(F)F` (centres unmarked) [compound 129, 7-Chloro-4-(2-hexynyl)-1,5-dihydro-5-(trifluoromethyl)-1,4-benzodiazepin-2-one]: the melting point fell in the range of 96 to 98 °C.

On to `CCC(C)CCN1CC(=O)Nc2ccc(Cl)cc2C1C(F)(F)F` (centres unmarked) [compound 131, 7-Chloro-4-(3-methylpentyl)-1,5-dihydro-5-(trifluoromethyl)-1,4-benzodiazepin-2-one], for which the melting point lay in the range of 113 to 116 °C.

Molecule `COc1cccc(F)c1CN1CC(=O)Nc2ccc(F)c(F)c2C1C(F)(F)F` (centres unmarked) [compound 132, 6,7-Difluoro-4-(2-fluoro-6-methoxybenzyl)-1,5-dihydro-5-(trifluoromethyl)-1,4-benzodiazepin-2-one] registered a melting point of 168 to 170 °C.

In turn, `CC(C)C#CC1(C(F)(F)F)c2c(ccc(F)c2F)NC(=O)CN1O` (centres unmarked) [compound 133, 6,7-Difluoro-4-hydroxy-5-(3-methyl-1-butynyl)-1,5-dihydro-5-(trifluoromethyl)-1,4-benzodiazepin-2-one] showed a melting point of 174 to 176 °C.

Molecule `CC(C)C#CC1(C(F)(F)F)N=CC(=O)Nc2ccc(Cl)cc21` (centres unmarked) [compound 134, 7-Chloro-5-(3-methyl-1-butynyl)-1,5-dihydro-5-(trifluoromethyl)-1,4-benzodiazepin-2-one] came in with a melting point of 185 to 187 °C.

Regarding `O=C1C=NC(C#Cc2cccs2)(C(F)(F)F)c2cc(Cl)ccc2N1` (centres unmarked) [compound 135, 7-Chloro-5-(2-thienylethynyl)-1,5-dihydro-5-(trifluoromethyl)-1,4-benzodiazepin-2-one], the melting point fell in the range of 196 to 198 °C.

`CCCCN1CC(=O)Nc2ccc(Cl)cc2C1(C#CC(C)C)C(F)(F)F` (centres unmarked) [compound 136, 7-Chloro-4-butyl-5-(3-methyl-1-butynyl)-1,5-dihydro-5-(trifluoromethyl)-1,4-benzodiazepin-2-one] had a melting point of 123 to 125 °C.

In turn, `O=C1CN(Cc2ccccc2F)C(C(F)(F)F)c2cc(Cl)ccc2N1` (centres unmarked) [compound 137, 7-Chloro-4-(2-fluorobenzyl)-1,5-dihydro-5-(trifluoromethyl)-1,4-benzodiazepin-2-one] returned a melting point of 170 to 171 °C.

Consider `O=C1CN(CCc2ccccc2Cl)C(C(F)(F)F)c2cc(Cl)ccc2N1` (centres unmarked) [compound 138, 7-Chloro-4-(2-(2-chlorophenyl)ethyl)-1,5-dihydro-5-(trifluoromethyl)-1,4-benzodiazepin-2-one], for which the melting point fell in the range of 161 to 162 °C.

`O=C1CN(C(=O)c2ccccc2)C(C(F)(F)F)c2cc(Cl)ccc2N1` (centres unmarked) [compound 139, 7-Chloro-4-benzoyl-1,5-dihydro-5-(trifluoromethyl)-1,4-benzodiazepin-2-one]: the melting point lay in the range of 257 to 258 °C.

Take `O=C1CN(CCc2ccccc2I)C(C(F)(F)F)c2cc(Cl)ccc2N1` (centres unmarked) [compound 140, 7-Chloro-4-(2-(2-iodophenyl)ethyl)-1,5-dihydro-5-(trifluoromethyl)-1,4-benzodiazepin-2-one]: the melting point was 172 to 173 °C.
